{"source": "patent US6838249B2", "about": "“Neuroblastoma cell lines expressing the α2δ subunit of calcium channels and methods therefore” (priority 2001, dated 2005)", "key": {"IMR32 cells": {"test_system": "IMR32 cells", "experiment": "Differentiation of IMR32 cells with BrdU, density of [^3H]GBP binding sites", "type": "cell-based, human", "settings": "10 μM BrdU for 10 to 12 days", "experimental": "IMR32 cells, SK-N-MC cells and NG 108 cells as well as cells treated in culture with 10 μM of BrdU for 10 to 12 days were used. Cells were harvested and homogenates were made in HEPES/KOH buffer, pH 7.4. The homogenates were centrifuged for 15 min at 1000×g, and the supernatants were centrifuged at 40000×g for 15 min to obtain cell membranes."}, "[1]": {"test_system": "α2δ subunit of calcium channels", "settings": "10 nM [^3H]GBP; for Ki: one-site binding model"}}, "note": "Like-named read-outs stand apart in the source and are kept apart here."}
{"molecule": "O=c1[nH]c(=O)n([C@H]2C[C@H](O)[C@@H](CO)O2)cc1Br", "note": "[BrdU, 5-Bromo-2′-deoxyuridine]", "values": [{"measurement": "expression of [^3H]GBP binding sites", "setting": "IMR32 cells", "value": "increased"}]}
{"molecule": "CSCC[C@H](N)C(=O)O", "note": "[L-methionine]", "values": [{"measurement": "inhibition of [^3H]GBP binding to IMR32 cell membranes", "setting": "[1]; varying concentrations (FIG. 3)", "value": "dose-dependently inhibited"}, {"measurement": "Ki", "setting": "[1]; read-out: Ki (nM) BrdU, differentiated (BrdU) IMR32 cell membranes", "value": 30, "unit": "nM"}, {"measurement": "Ki", "setting": "[1]; read-out: Ki (nM) Control, undifferentiated (Control) IMR32 cell membranes", "value": 39, "unit": "nM"}]}
